The source of these data is publication PMC5507300, “Antibacterial small molecules targeting the conserved TOPRIM domain of DNA gyrase” (PLoS ONE, 2017).

Holding throughout (format): cell-based
Test [1] has as its system E. coli HS151. As to the kind of experiment: In vitro time-dependent bactericidal study. The note with it: E. coli HS151; at the 4 hour time point. Here is the method: A culture of E. coli HS151 in CAMH broth was grown overnight (18 hrs.) at 37°C, diluted 1:10,000 in 200 mL of fresh CAMH broth and further incubated for 1 hour at 37°C with shaking. A time-zero sample was then removed and 20 mL portions of the remaining culture were transferred into 125 mL vented flasks to which were added MRL-1082 or control antibiotics, at the indicated concentrations. These flasks were then incubated at 37°C with shaking (70 rpm). Samples were withdrawn at the indicated times, plated on blood agar (trypticase soy agar with 5% sheep blood, Becton-Dickinson) and, following overnight growth at 37°C, colonies were counted to determine CFU/mL.

Test [2] deals with E. coli CIP101 GyrA D87N. The test can be described thus: microbe, parasite or virus in culture. The following applies: Escherichia coli. Here is the method: (§1) Compound doubling dilutions were prepared in 100% DMSO (Sigma Aldrich) and 2 μL of each dilution was transferred to a 96-well plate with lid (Thermo Scientific). Inoculum for all MIC testing was prepared using the BBL Prompt Inoculation System (Becton Dickinson, Franklin Lakes, NJ USA) as described by the manufacturer to produce a suspension of cells at approximately 1.5 x 10^8 colony forming units (CFU)/mL [34–36] and a further dilution (1:1000) was made into cation adjusted Mueller-Hinton broth (CAMH broth, Becton-Dickinson). One hundred μL of this inoculum were then transferred to each well of the 96-well plate containing diluted compound (above). Plates were covered and incubated overnight (18 hrs.) at 37°C.

In test [3] the test system is E. coli GYR108 GyrB L470I/V467L. As to the kind of experiment: microbe, parasite or virus in culture. The following applies: Escherichia coli.
Source text: (§2) E. coli HS151 (ΔtolC) has been described previously. […] E. coli BW25113 and the Keio gene deletion collection based on BW25113 [25] were obtained from Thermo Fisher Scientific (Waltham, MA) and described in [26]. The plasmid-borne FQ resistance determinant, qnrVC3 [27], was kindly provided by D. Hooper (Massachusetts General Hospital). […] MB2884 (E. coli) and CL15245 (K. pneumoniae) are clinical isolates from the Merck & Co., Inc., Kenilworth, NJ, USA, strain collection. S. aureus COL is a methicillin-resistant clinical isolate.
as §1
After the agar solidified, 5 μL of a saturated bacterial culture, grown in CAMH broth, were dispensed on the agar surface and allowed to dry at room temperature. […] After the surface dried at room temperature the plate was incubated at 37°C overnight. […] Genomic DNA from the parent strain (E. coli HS151) and purified (restreaked) resistant isolates was obtained with a GeneJET genomic DNA purification kit according to the manufacturer’s instructions (Fisher Scientific). Assembled whole genome mutant sequences were then compared to the parent strain and polymorphisms were identified as described.

Test [4] concerns E. coli BW25113 ΔtolC. As to the kind of experiment: Broth microdilution MIC, E. coli BW25113 ΔtolC. The following applies: Escherichia coli.
Source text: (§3) E. coli HS151 (ΔtolC) has been described previously. Gyrase inhibitor-resistant isolates (GYR101-108) were derived by selection for spontaneous resistance to MRL-770 or MRL-423 (Fig 1) in E. coli HS151 as described below. E. coli BW25113 and the Keio gene deletion collection based on BW25113 [25] were obtained from Thermo Fisher Scientific (Waltham, MA) and described in [26]. The plasmid-borne FQ resistance determinant, qnrVC3 [27], was kindly provided by D. Hooper (Massachusetts General Hospital). MB9796 (A. baumannii) is a derivative of MB9797 (ATCC19606) lacking lipopolysaccharide. The efflux-defective P. aeruginosa strain MB5890 (CB398) is a derivative of MB5919 (PAO1). MB2884 (E. coli) and CL15245 (K. pneumoniae) are clinical isolates from the Merck & Co., Inc., Kenilworth, NJ, USA, strain collection. S. aureus COL is a methicillin-resistant clinical isolate.
as §1
The yacG deletion allele from the Keio collection was amplified by PCR (primers: […] and […]) and moved to BW25113 ΔtolC as described below. The E. coli strain BW25113 ΔtolC containing pKD46 [25] was used to inoculate SOB (Invitrogen)/0.2% w/v arabinose (Sigma Aldrich)/ampicillin (100 μg/mL) and grown overnight at 30°C. The overnight culture was then diluted 1/40 into 20 mL fresh SOB/0.2% w/v arabinose/ampicillin (100 μg/mL) and grown at 30°C while shaking for ~3 hrs until OD600 = 0.5. […]
On the technique in general: In broth dilution the organism is exposed to a series of concentrations in liquid medium.

Test [5] has as its system A. baumanii MB9797 (ATCC19606). As to the kind of experiment: Broth microdilution MIC, A. baumannii MB9797. The note with it: Acinetobacter baumannii.
Source text: as §3, §1

Test [6] concerns E. coli HS151 (qnrVC). As to the kind of experiment: Broth microdilution MIC, E. coli HS151 (qnrVC). The following applies: Escherichia coli.
Source text: as §3, §1

Test [7] deals with E. coli HS151 (ΔtolC). As to the kind of experiment: microbe, parasite or virus in culture. The note with it: Escherichia coli, Table 3; HS151.
Source text: as §2, §1

Test [8] concerns E. coli BW25113 ΔtolC/ΔyacG. The test can be described thus: Broth microdilution MIC, E. coli BW25113 ΔtolC/ΔyacG. The following applies: Escherichia coli, BW25113. Here is the method:
as §1
The yacG deletion allele from the Keio collection was amplified by PCR (primers: […] and […]) and moved to BW25113 ΔtolC as described below. The E. coli strain BW25113 ΔtolC containing pKD46 [25] was used to inoculate SOB (Invitrogen)/0.2% w/v arabinose (Sigma Aldrich)/ampicillin (100 μg/mL) and grown overnight at 30°C. The overnight culture was then diluted 1/40 into 20 mL fresh SOB/0.2% w/v arabinose/ampicillin (100 μg/mL) and grown at 30°C while shaking for ~3 hrs until OD600 = 0.5. Cells were pelleted by centrifugation at 4000 rpm for 10 min, washed with 40 mL ice cold sterile, distilled H2O, then 3 x 1 mL ice cold 10% glycerol followed by centrifugation at 5000 g for 3 minutes. The pellet was resuspended in 100 μL of 10% glycerol (1/200 of starting culture). For transformation, 5 μL of gel purified PCR product was added to 50 μL cells, mixed, and immediately electroporated in a 0.2 cm gap cuvette at 2.5kV, 25 μF, 200 Ω (BioRad, Hercules, CA USA). Electroporated cells were recovered in 1 mL SOC (Invitrogen)/0.2% arabinose at 37°C for 2 hours with shaking. Cells in amounts of 50 and 950 μL were then plated on LB agar supplemented with kanamycin (25 μg/mL) and incubated overnight at 37°C. Correct gene replacements were verified by PCR.

In test [9] the test system is A. baumannii ΔlpxC MB9796. As to the kind of experiment: Broth microdilution MIC, A. baumannii MB9796. The following applies: Acinetobacter baumannii.
Source text: as §3, §1

Test [10] deals with S. aureus (MRSA) COL. The test can be described thus: Broth microdilution MIC, S. aureus COL. The following applies: Staphylococcus aureus, MRSA.
Source text: as §3, §1

The test system of test [11] is DNA synthesis in E. coli JL553. As to the kind of experiment: Macromolecule synthesis labeling. The note with it: E. coli JL553, 25 min exposure, labeled precursor incorporation. The method, then:
Macromolecule synthesis profiling was conducted as described by Montgomery, et al. with minor modifications. E. coli strain JL553 (tolC, lysE) was used to measure inhibition of DNA, RNA, protein, peptidoglycan and phospholipid biosynthesis while E. coli MB5500 (lpxC [envA1], galE; Merck & Co., Inc., Kenilworth, NJ, USA, strain collection) was used to measure inhibition of lipopolysaccharide biosynthesis. Radioisotope labeled precursors were used at the following final concentrations [2-^14C]-thymidine (2.5 μCi/mL), [^14C(U)]-uridine (0.5 μCi/mL), L-[4, 5-^3H]-leucine (5 μCi/mL), [2-^3H]-glycerol (2 μCi/mL), [^3H]-diaminopimelic acid (3 μCi/mL), D-[1-^14C]-galactose (0.5 μCi/mL). Compound concentrations (3-fold serial dilutions) were chosen to place the minimum inhibitory concentration (see below) near the center of the dose range. Labeled cultures were incubated with compound for 25 min; stopped with trichloroacetic acid, filtered and incorporation was measured as described. Percent inhibition of incorporation was calculated relative to an untreated control culture for each labeled precursor and plotted with GraphPad Prism.

The test system of test [12] is E. coli GYR103 GyrB L446Q. The test can be described thus: microbe, parasite or virus in culture. The following applies: Escherichia coli.
Source text: as §3, §1
After the agar solidified, 5 μL of a saturated bacterial culture, grown in CAMH broth, were dispensed on the agar surface and allowed to dry at room temperature. […] To select for resistance, a 100 mm petri dish was filled with 25 mL CAMH agar containing 8 μg/mL MRL-770 or 0.5 μg/mL MRL-423 (Fig 1). The cells in 1 mL of an overnight culture of E. coli HS151 (~10^9 CFU/mL) were concentrated by centrifugation and spread onto the surface of an MRL-770 or MRL-423 containing plate. After the surface dried at room temperature the plate was incubated at 37°C overnight. Any colonies that arose were counted and an approximate frequency of resistance was calculated after confirming resistance by restreaking on media containg compound as well as measuring MICs (see Results). Genomic DNA from the parent strain (E. coli HS151) and purified (restreaked) resistant isolates was obtained with a GeneJET genomic DNA purification kit according to the manufacturer’s instructions (Fisher Scientific). Assembled whole genome mutant sequences were then compared to the parent strain and polymorphisms were identified as described.

Structures are written as SMILES. ≈ marks a conversion by molar mass, not a printed value.

As to `O=C(O)c1cn(C2CC2)c2cc(N3CCNCC3)c(F)cc2c1=O` [ciprofloxacin], the “culture viability, below lower limit of quantitation” value in test [1] is recorded as < 20 CFU/mL. Also, the MIC was 31.2 ng/mL (≈ 0.0943 µM) in [2]; 3.9 ng/mL (≈ 0.0118 µM) in test [3]; 4 ng/mL (≈ 0.0121 µM) in test [4]; > 125 ng/mL in [5]; 30 ng/mL (≈ 0.0905 µM) in test [6]; 4 ng/mL (≈ 0.0121 µM) in test [7]. In addition, the MIC in [8] was 4 ng/mL (≈ 0.0121 µM); in test [9] it was 62.5 ng/mL (≈ 0.189 µM); in [10], > 125 ng/mL; in test [12], 3.9 ng/mL (≈ 0.0118 µM). In test [11], the “inhibition of macromolecule synthesis” value is given as “Dose-dependent, selective inhibition of DNA synthesis”.
